{"source": "patent US6208893A", "about": "“Electroporation apparatus with connective electrode template” (Genetronics, Inc., priority 1999, dated 2001)", "key": {"[1]": {"test_system": "PC-3 cells", "assay": "XTT cell proliferation assay, cytotoxicity on PC-3 cells with and without electroporation", "settings": "for cell susceptibility with electroporation / cytotoxic enhancement, rank order: combined with electroporation; for cytotoxicity enhancement ratio: IC50 no electroporation vs with electroporation", "method": "PC-3 cells (ATCC CRL-1435, a prostate cancer cell line) were grown in RPMI-1640 supplemented with 15% fetal calf serum (FCS) and 1% L-glutamine in 5% CO2 at 37° C. Cells in the exponential phase of growth were harvested by trypsinization and their viability was determined by trypan blue exclusion. Cell were suspended in culture medium at 2×10^5 cells/ml and seeded in the wells of a 96-well plate at a final concentration of 4×10^4 cells per well. Cells were pulsed using appropriate needle array electrodes connected to a square wave pulse generator. The needle array was inserted in the well of the 96 well microplate and pulsed using the following parameters:\nA cell survival curve was produced for the different electric fields.\nMethods, 142:2, 257-265, 1991). The XTT assay is based on a spectrophotometric assay of the metabolic conversion of tetrazolium salts to formazan; living cells convert XTT to formazan, which can be measured spectrophotometrically. Results were expresses as a comparison of the lC50 (concentration of drug inhibiting 50% of the cells) of each agent in the presence and absence of clectroporation, and are presented in Table 1."}, "[2]": {"settings": "partition coefficient between octanol and water; cited from earlier work"}, "[3]": {"test_system": "prostate", "assay": "Intraprostatic injection of Bleomycin with electroporation, tolerability, ECG and histology in dog", "format": "in vivo, male beagle dog", "method": "In order to evaluate the technical feasibility of intraprostatic injection of Bleomycin, the following study was performed. A male beagle dog with a prostate size of >2 cm in diameter was anesthetized, A midline laparotomy was performed, and the bladder and gut reflected to visualize the prostate gland. Under direct visual guidance, Bleomycin was injected into each of six sextants (base, mid, and apex of both the left and right sides) of the prostate. Four electroporation needles were then inserted transperineally under visual guidance to administer the electroporation cycles. […] The ECG was recorded during each of the electroporation pulse sequences. The first two sequences were conducted with the needles inserted into the prostate, through the perineum. Four additional sequences were recorded with the needles inserted directly into the muscles of the left hindlimb. Each of the pulse sequences produced stimulation artifacts on the recording of the ECG.\nThe prostate was then excised and processed for histological evaluation."}, "[4]": {"test_system": "tumor cell", "settings": "cited from earlier work"}, "[5]": {"test_system": "PC-3 cells", "assay": "PC-3 tumors in nude mice, intratumoral bleomycin with or without electroporation", "format": "in vivo, nude mice; human prostate tumor (PC-3) cells", "settings": "for death: deaths due to infighting", "method": "In order to examine the effect of electroporation on the effectiveness of chemotherapeutic agents in vivo, a nude mouse model was utilized. For these experiments, 0.1 ml of a matrigel solution (a serum-free solution consisting of one part matrigel diluted in four parts RPMI-1640) containing 5×10^6 PC-3 cells was implanted on the flank of nude mice. The tumors were allowed to grow until a tumor volume of […]. The mice were weighed and randomly divided into six groups as follows:\nGroup 1: no chemotherapeutic agent, no electroporation\nGroup 2: 0.5 unit Bleomycin, no electroporation\nGroup 3: 0.5 units Bleomycin, 4 needle array, 0.65 cm, 942V, 4×100 μs pulses\nGroup 4: 0.5 units Bleomycin, 6 needle array, 1.00 cm, 1130 V, 6×100 μs pulses\nGroup 5: 0.5 units Bleomycin, 6 needle array, 0.50 cm, 559 V, 6×100 μs pulses\nGroup 6: 0.5 units Bleomycin, 4 needle array, 0.87 cm, 1500V, 4×100 μs pulses\nIn those animals which received Bleomycin, the chemotherapeutic agent (0.5 unit) was dissolved in 0.01 ml saline and injected intratumorally by \"fanning.\" After 10±1 minutes, a Genetronics Medpulser™ device was used to pulse the tumors with a set of either 6 or 4-needle array electrodes. All treatments were given as a single set of pulses.\nThe animals were monitored daily for morality or any sign of disease for 67 days (see FIG. 24, where D=drug treatment (Bleomycin) and e=electroporation). Tumor size was measured and tumor volume calculated using the formula: […]\nwherein a, b, and c are the length, width, and depth of the tumor in mm.\nFollowing the monitoring period, the tumors were harvested and sections were prepared for histological analyses. Animals were classified as having progressive disease (appearance of new lesions not previously identified or having an estimated increase of 25% or more in existent lesion size), a complete response (complete disappearance of all known disease, a partial response (wherein the tumor size decrease 50% or more). Deaths were noted to be due to infighting of mice in the same cage."}, "[6]": {"settings": "during electroporation pulse sequences"}}, "note": "Read-outs that look alike come from different tables or passages of the source."}
{"molecule": "N.N.[Cl][Pt][Cl]", "note": "[Cisplatin]", "values": [{"measurement": "cell susceptibility with electroporation", "setting": "[1]", "value": "electroporation enhances cell susceptibility"}, {"measurement": "IC50", "setting": "[1]; read-out: IC50 no electroporation, no electroporation, 20 hours after treatment", "value": 50, "unit": "µM"}, {"measurement": "IC50", "setting": "[1]; read-out: IC50 with electroporation, with electroporation, 6 pulses, 99 μs, 400-600 V, 0.5 cm needle array, 20 hours after treatment", "value": 10, "unit": "µM"}]}
{"molecule": "CO[C@@]12[C@H](COC(N)=O)C3=C(C(=O)C(C)=C(N)C3=O)N1C[C@@H]1N[C@@H]12", "note": "[Mitomycin C]", "values": [{"measurement": "IC50", "setting": "[1]; Homo sapiens, PC-3, 20 h, read-out: IC50 no electroporation", "value": 80, "unit": "µM"}, {"measurement": "IC50", "setting": "[1]; Homo sapiens, PC-3, 20 h, read-out: IC50 with electroporation", "value": 60, "unit": "µM"}, {"measurement": "cytotoxicity enhancement ratio", "setting": "[1]", "value": 1.33}, {"measurement": "cytotoxic enhancement, rank order", "setting": "[1]", "value": "followed by Cisplatin and Mitomycin C"}]}
{"molecule": "Bleomycin", "values": [{"measurement": "log P", "setting": "[2]", "value": "very negative"}, {"measurement": "ECG, electrical rhythm of the heart", "setting": "[3]; [6]", "value": "no effect on the electrical rhythm of the heart"}, {"measurement": "clinical disturbances of the cardiac rhythm", "setting": "[3]; [6]", "value": "no clinical disturbances of the cardiac rhythm were observed"}, {"measurement": "muscular contractions", "setting": "[3]; during the electroporation pulses", "value": "muscular contractions were observed"}, {"measurement": "acute local or adverse reactions", "setting": "[3]; intraprostatic Bleomycin plus electroporation", "value": "No acute local or adverse reactions"}, {"measurement": "injection site finding", "setting": "[3]; intraprostatic Bleomycin plus electroporation, persisted for the duration of the study", "value": "Small hematomas were evident at the injection site"}, {"measurement": "gross examination of prostate, perineum and surrounding tissues", "setting": "[3]; one hour after electroporation", "value": "no findings except for the hematomas on the prostate surface"}, {"measurement": "necrosis of epithelial cells in the glandular portion of the prostate", "setting": "[3]; one hour after electroporation", "value": "Necrosis occurred in the epithelial cells"}, {"measurement": "necrosis of the supporting stroma", "setting": "[3]; one hour after electroporation", "value": "No necro-sis of the supporting stroma was observed"}, {"measurement": "histological tissue findings in the prostate gland", "setting": "[3]; one hour after electroporation, multifocal in distribution pattern", "value": "hemorrhage, edema, and necrosis, which were mild in severity"}, {"measurement": "diffusion into a tumor cell", "setting": "[4]", "value": "diffuse very slowly into a tumor cell"}, {"measurement": "penetration of the membranes of certain cancer cells", "setting": "[4]; without electroporation", "value": "normally cannot penetrate the membranes of certain cancer cells effectively"}, {"measurement": "Progressive disease", "setting": "[5]; Group 2: 0.5 unit Bleomycin, no electroporation, 6 animals, 67 days", "value": 100, "unit": "%"}, {"measurement": "partial response", "setting": "[5]; Group 3: 0.5 units Bleomycin, 4 needle array, 0.65 cm, 942V, 4×100 μs pulses, 1 of 7 animals, 67 days", "value": 14, "unit": "%"}, {"measurement": "death", "setting": "[5]; Group 3: 0.5 units Bleomycin, 4 needle array, 0.65 cm, 942V, 4×100 μs pulses, 1 of 7 animals", "value": 14, "unit": "%"}, {"measurement": "complete response", "setting": "[5]; Group 3: 0.5 units Bleomycin, 4 needle array, 0.65 cm, 942V, 4×100 μs pulses, 5 of 7 animals, 67 days", "value": 52, "unit": "%"}, {"measurement": "partial response", "setting": "[5]; Group 4: 0.5 units Bleomycin, 6 needle array, 1.00 cm, 1130 V, 6×100 μs pulses, 1 of 7 animals, 67 days", "value": 14, "unit": "%"}, {"measurement": "death", "setting": "[5]; Group 4: 0.5 units Bleomycin, 6 needle array, 1.00 cm, 1130 V, 6×100 μs pulses, 1 of 7 animals", "value": 14, "unit": "%"}, {"measurement": "complete response", "setting": "[5]; Group 4: 0.5 units Bleomycin, 6 needle array, 1.00 cm, 1130 V, 6×100 μs pulses, 5 of 7 animals, 67 days", "value": 52, "unit": "%"}, {"measurement": "partial response", "setting": "[5]; Group 5: 0.5 units Bleomycin, 6 needle array, 0.50 cm, 559 V, 6×100 μs pulses, 1 of 6 animals, 67 days", "value": 17, "unit": "%"}, {"measurement": "complete response", "setting": "[5]; Group 5: 0.5 units Bleomycin, 6 needle array, 0.50 cm, 559 V, 6×100 μs pulses, 5 of 6 animals, 67 days", "value": 83, "unit": "%"}, {"measurement": "partial response", "setting": "[5]; Group 6: 0.5 units Bleomycin, 4 needle array, 0.87 cm, 1500V, 4×100 μs pulses, 1 of 8 animals, 67 days", "value": 12, "unit": "%"}, {"measurement": "death", "setting": "[5]; Group 6: 0.5 units Bleomycin, 4 needle array, 0.87 cm, 1500V, 4×100 μs pulses, 2 of 8 animals", "value": 25, "unit": "%"}, {"measurement": "complete response", "setting": "[5]; Group 6: 0.5 units Bleomycin, 4 needle array, 0.87 cm, 1500V, 4×100 μs pulses, 5 of 8 animals, 67 days", "value": 63, "unit": "%"}, {"measurement": "cytotoxicity enhancement ratio", "setting": "[1]", "value": 1000}, {"measurement": "cell susceptibility with electroporation", "setting": "[1]", "value": "electroporation enhances cell susceptibility"}, {"measurement": "cytotoxic enhancement, rank order", "setting": "[1]", "value": "highest cytotoxic enhancement"}]}
